Measured values as given in patent publication US20210251994A1, “INCREASING IMMUNE ACTIVITY THROUGH MODULATION OF POSTCELLULAR SIGNALING FACTORS” (FLAGSHIP PIONEERING INNOVATIONS V, INC., priority 2018, published 2021).
Entries after “also recorded” stand apart in the source; their conditions may differ.

Assays:
[1] = tested on: A20 lymphoma cells; assay: Viability of A20 B-cell leukemia / lymphoma cells after treatment; type: cell-based; conditions: various doses, 24 hours treatment
[2] = tested on: NFKB; assay: NFKB reporter activity in THP1-Dual monocytes co-cultured with treated A20 cells; type: cell-based, human; conditions: A20 cells treated 24 hours, then co-culture with THP1-Dual cells 24 hours; versus DMSO
Method: (§1) A20 B-cell leukemia cells were treated with either control (DMSO) or various doses of RSL3, for 24 hours prior to co-culture with THP1-Dual cells for an additional 24 hours. RSL3 was purchased from Selleckchem (Houston, Tex.) and dissolved in DMSO. Subsequently, the THP1 supernatants were assessed for NFKB or IRF reporter activity.
(§2) A20 cells were acquired from ATCC and THP1-Dual cells acquired from InvivoGen (San Diego, Calif.). Both cell types were cultured in 96-well plates for the duration of the assay. 50,000 A20 cells were plated 24 hours prior to dosing with RSL3, with a final DMSO concentration of 0.5%. 24 hours post-treatment, THP1-Dual cells (25,000 cells/well) were added to the A20 cells. 24 hours later, 30 μl of supernatant was mixed with either 200 μl QuantiBlue (InvivoGen, San Diego, Calif.) or 50 μl QuantiLuc and absorbance or luminescence was recorded on a Molecular Devices plate reader.
A20 lymphoma cells were treated with various doses (e.g. 0.002, 0.005, 0.014, 0.041, 0.123, 0.370, 1.111, 3.333 and 10 μM) of a GPX4 inhibitor (RSL3, ML162 or ML210) in the presence or absence of 1 μM Ferrostatin-1 for 24 hours. ML162 was purchased from Cayman Chemical Company Inc and resuspended in DMSO. ML210 was purchased from Sigma-Aldrich and resuspended in DMSO. A20 lymphoma cells were also treated with DMSO as a negative control. After treatment with DMSO or a GPX4 inhibitor for 24 hours, the A20 lymphoma cells were co-cultured with THP1-Dual cells for an additional 24 hours. Subsequently, the THP1 supernatant was assessed for NFKB reporter activity. A20 cells were acquired from ATCC and THP1-Dual cells were acquired from InvivoGen (San Diego, Calif.). Both cell types were cultured in 96-well plates for the duration of the assay.

[3] = tested on: NFKB; assay: NFKB reporter activity in THP1-Dual monocytes co-cultured with treated Jurkat cells; type: cell-based, human; conditions: Jurkat cells treated 24 hours, then co-culture with THP1-Dual cells 24 hours; versus DMSO
Method: as §1, with “Jurkat T cell” for “A20 B-cell”
as §2, with “Jurkat” for “A20”, “100,000 Jurkat” for “50,000 A20”

[4] = tested on: NFKB; assay: NFKB reporter activity in THP1-Dual monocytes co-cultured with treated Caki-1 cells; type: cell-based, human; conditions: Caki-1 cells treated 24 hours, then co-culture with THP1-Dual cells 24 hours; versus DMSO
Method: as §1, with “Caki-1 renal cell carcinoma” for “A20 B-cell leukemia”, “Erastin,” for “RSL3,”, “Erastin” for “RSL3”
as §2, with “Caki-1” for “A20”, “7,500 Caki-1” for “50,000 A20”, “Erastin,” for “RSL3,”, “(InvivoGen)” for “(InvivoGen, San Diego, Calif.)”
as §1, with “Caki-1 renal cell carcinoma” for “A20 B-cell leukemia”, “Selleckchem” for “Selleckchem (Houston, Tex.)”
as §2, with “Caki-1” for “A20”, “7,500 Caki-1” for “50,000 A20”
Caki-1 renal carcinoma cells were treated with either control (DMSO) or various doses (e.g. 0.002, 0.005, 0.014, 0.041, 0.123, 0.370, 1.111, 3.333 and 10 μM) of a GPX4 inhibitor (RSL3 or ML162) in the presence or absence of 1 μM Ferrostatin for 24 hours prior to co-culture with THP1-Dual cells for an additional 24 hours. Subsequently, the THP1 supernatant was assessed for NFKB reporter activity. Caki-1 cells were acquired from ATCC and THP1-Dual cells acquired from InvivoGen (San Diego, Calif.). Both cell types were cultured in 96-well plates for the duration of the assay.

[5] = tested on: RAS-expressing cells; conditions: knockdown studies; U.S. Pat. No. 8,546,421; cited from earlier work
[6] = tested on: IRF; assay: IRF reporter activity in THP1-Dual monocytes co-cultured with treated A20 cells; type: cell-based, human; conditions: A20 cells treated 24 hours, then co-culture with THP1-Dual cells 24 hours; versus DMSO
Method: A20 B-cell leukemia cells were treated with either control (DMSO) or various doses of RSL3, for 24 hours prior to co-culture with THP1-Dual cells for an additional 24 hours. RSL3 was purchased from Selleckchem (Houston, Tex.) and dissolved in DMSO. Subsequently, the THP1 supernatants were assessed for NFKB or IRF reporter activity. A20 cells were acquired from ATCC and THP1-Dual cells acquired from InvivoGen (San Diego, Calif.). Both cell types were cultured in 96-well plates for the duration of the assay. 50,000 A20 cells were plated 24 hours prior to dosing with RSL3, with a final DMSO concentration of 0.5%. 24 hours post-treatment, THP1-Dual cells (25,000 cells/well) were added to the A20 cells. 24 hours later, 30 μl of supernatant was mixed with either 200 μl QuantiBlue (InvivoGen, San Diego, Calif.) or 50 μl QuantiLuc and absorbance or luminescence was recorded on a Molecular Devices plate reader.

[7] = tested on: Jurkat T cell leukemia cells; assay: Viability of Jurkat T cell leukemia cells after treatment; type: cell-based; conditions: various doses, 24 hours treatment
[8] = tested on: Caki-1 renal cell carcinoma cells; assay: Viability of Caki-1 renal cell carcinoma cells after treatment; type: cell-based; conditions: various doses, 24 hours treatment
Method: Caki-1 renal carcinoma cells were treated with either control (DMSO) or various doses (e.g. 0.002, 0.005, 0.014, 0.041, 0.123, 0.370, 1.111, 3.333 and 10 μM) of a GPX4 inhibitor (RSL3 or ML162) in the presence or absence of 1 μM Ferrostatin for 24 hours prior to co-culture with THP1-Dual cells for an additional 24 hours. […] Caki-1 cells were acquired from ATCC and THP1-Dual cells acquired from InvivoGen (San Diego, Calif.). Both cell types were cultured in 96-well plates for the duration of the assay.

SMILES: COC(=O)c1ccc([C@H]2c3[nH]c4ccccc4c3C[C@H](C(=O)OC)N2C(=O)CCl)cc1 [RSL3]
- viability of A20 cells [1]: negatively affected the viability; also recorded: decreased viability of the cells in a dose dependent manner
- NFKB signaling/activity in THP1 monocytes [2]: elicited; also recorded: increased NFKB activity in THP1 cells in a dose dependent manner
- NFKB signaling in THP1 monocytes [3]: elicited NFKB signaling
- NFKB signaling/activity in THP1 monocytes [4]: elicited NFKB signaling; also recorded: increased NFKB activity in THP1 cells in a dose dependent manner
- death of RAS-expressing cells [5]: selectively mediated the death of RAS-expressing cells
- lipid ROS accumulation [5]: increasing lipid ROS accumulation
- IRF signaling in THP1 monocytes [6]: elicited
- viability of Jurkat T cell leukemia cells [7]: negatively affected the viability
- viability of Caki-1 cells [8]: negatively affected the viability; also recorded: decreased viability of the cells in a dose dependent manner
